Reference: patent publication US20020103083A1, “Promoting deeper root development, reducing nitrogen fertilizer usage, imparting drought resistance, and increasing tolerance to adverse soil conditions in plants” (priority 2000, published 2002)

Tested on: T. harzianum strain T-22
Assay: Effect of chemical seed treatments on subsequent root colonization by T-22
Type: in vivo, Trichoderma harzianum
Conditions: full rates of chemical seed treatment
Source text: In nearly all cases, the best results in direct-seeded field crops are obtained with an integration of chemical seed treatments and the deep root developing agents. […] This resistance permits the use of both the biological root colonizing agent and chemical seed protectants.

SMILES: CC(C)(C)C(O)(CCc1ccc(Cl)cc1)Cn1cncn1 (centres unmarked) [tebuconazole]
- prevention of subsequent root colonization by T-22: exceptions

SMILES: CN(C)C(=S)SSC(=S)N(C)C [thiram]
- prevention of subsequent root colonization by T-22: exceptions
